Patent publication US20110130405A1, “SUBSTITUTED QUINAZOLINES AS BLOOD PLATELET LOWERING AGENTS” (Shire LLC, priority 2008, published 2011)

What was measured:
[1] = molecular target: human phosphodiesterase III (PDE III); details: cited from earlier work
[2] = system: human phosphodiesterase III (PDE III); assay: PDE III inhibition; format: biochemical; details: more potent than anagrelide
From the text: In early volunteer trials, the most frequently reported adverse effects AEs other than headache were palpitations, postural dizziness and nausea. During patient studies, the most frequently reported drug-related AEs were headache, palpitations, oedema/fluid retention, nausea/vomiting, diarrhea, dizziness and abdominal pain. These effects are all likely to arise from the secondary, cardiovascular pharmacology associated with anagrelide resulting from its inhibitory effects on human phosphodiesterase III (PDE III). […] Inhibition of myocardial PDE III leads to positive inotropy (increasing of the force of contractions of the heart), increased chronotropy (increase in heart rate), and peripheral vasodilatation. Such cardiovascular manifestations of this inhibition are typically seen with the classical positive inotropes, milrinone and enoximone, and exploited in the short-term acute treatment of congestive heart failure. However, in the treatment of a so-called silent disease (i.e., asymptomatic) such as ET, the cardiovascular side-effects of palpitations and tachycardia associated with anagrelide limit its utility and a significant proportion of patients—reportedly between 25 and 50%—fail to tolerate the drug during long term treatment.

[3] = pharmacokinetics in humans; format: in vivo, human; details: after anagrelide treatment
From the text: The metabolism of anagrelide generally proceeds extremely rapidly, resulting in a less than ideal pharmacokinetic profile of the drug. […] This, combined with the side-effects profile, can lead to poor patient compliance. Furthermore, anagrelide undergoes a large first pass effect (>50%) leading to considerable intersubject variation in achieved exposures and, therefore, potentially variable drug response. Also, exposure to the pharmacologically active metabolite varies dramatically between patients since its formation is dependent on CYP1A, an enzyme whose expression is highly dependent on exposure to inducing agents such as cigarette smoke. Overall, this may result in the need for careful dose titration in patients being treated with anagrelide.

[4] = system: human megakaryocytopoiesis; details: cited from earlier work
[5] = human; cited from earlier work
[6] = system: erythroid or myelomonocytic differentiation; details: stimulated by erythropoietin or granulocyte-macrophage colony-stimulating factor; cited from earlier work

SMILES: Cc1[nH]c(=O)c(C#N)cc1-c1ccncc1 [milrinone]
- IC50 [1]: 170 to 350 nM

SMILES: O=C1NC2=Nc3ccc(Cl)c(Cl)c3CN2C1O (stereo not drawn) [3-hydroxyanagrelide]
- potency as PDE III inhibitor relative to anagrelide [2]: over 40 fold
- in vivo exposure relative to parent drug [3]: 2-3 fold
- potency of inhibition of megakaryocytopoiesis relative to parent drug ([4]; compared with anagrelide): no more potent than the parent drug
- typical half-life [5]: 2.5 h

SMILES: O=C1CN2Cc3c(ccc(Cl)c3Cl)N=C2N1 [Anagrelide, 6,7-dichloro-1,5-dihydroimidazo[2,1-b]-quinazolin-2(3H)-one]
- IC50 ([4]; in vitro, dose-dependent, read-out: estimated IC50, inhibition of TPO-induced megakaryocytopoiesis): ~26 nM
- effect on erythroid or myelomonocytic differentiation [6]: does not affect
- IC50 [1]: ~29 nM
- first pass effect [5]: > 50%
